Measurements taken from patent US20230172846A1, “ORAL DISSOLVABLE FILM AND METHOD OF MANUFACTURING AND USING THE SAME” (CURE PHARMACEUTICAL HOLDING CORP., priority 2019, published 2023).

Key:
[1] = CBD film stability study (% assay of CBD); format: physicochemical
pancreatic cancer = conditions: in vivo; cited from earlier work
[2] = Vitamin D3 Oral Thin Film 4 weeks stability study (% assay); format: physicochemical; conditions: for % Assay of Vitamin D3: in oral thin film
Text: Vitamin D3 is a highly sensitive Lipophilic active pharmaceutical ingredient (API). It was used as a model drug, formulated using above formulation and, Vitamin D3 Oral Thin Film tested for 4 weeks stability study.

For `C=C(C)[C@@H]1CCC(C)=C[C@H]1c1c(O)cc(CCCCC)cc1O` [CBD, Cannabidiol], the “% Assay of CBD” value ([1]; 25 C./60% RH, T0 Week) was 108%, the “% Assay of CBD” value ([1]; 25 C./60% RH, T1 Month) was 109% and the “% Assay of CBD” value ([1]; 25 C./60% RH, T2 Months) was 113%. The “% Assay of CBD” value ([1]; 25 C./60% RH, T 2 Weeks) was 109%, the “% Assay of CBD” value ([1]; 25 C./60% RH, T3 Months) was 120% and the “% Assay of CBD” value ([1]; 40 C./75% RH, T1 Month) was 106%. The “% Assay of CBD” value ([1]; 40 C./75% RH, T2 Months) was 113%, the “% Assay of CBD” value ([1]; 40 C./75% RH, T 2 Weeks) was 108% and the “% Assay of CBD” value ([1]; 40 C./75% RH, T3 Months) was 118%. The “% Assay of CBD” value ([1]; 40 C./75% RH, T9 Months) was 96%, the “Stability and protection of the API in the film formulation” value ([1]; T=3M stability) was “better stability” and the “% Assay of CBD” value ([1]; in film formulation, 25 C./60% RH, T1 Month) was 109%. For the same compound, the “% Assay of CBD” value ([1]; in film formulation, 25 C./60% RH, T2 Months) was 113%, the “% Assay of CBD” value ([1]; in film formulation, 25 C./60% RH, T 2 Weeks) was 109% and the “% Assay of CBD” value ([1]; in film formulation, 25 C./60% RH, T3 Months) was 120%. For the same compound, the “% Assay of CBD” value ([1]; in film formulation, 40 C./75% RH, T1 Month) was 106%, the “% Assay of CBD” value ([1]; in film formulation, 40 C./75% RH, T2 Months) was 113% and the “% Assay of CBD” value ([1]; in film formulation, 40 C./75% RH, T 2 Weeks) was 108%. The “% Assay of CBD” value ([1]; in film formulation, 40 C./75% RH, T3 Months) was 118% and the “% Assay of CBD” value ([1]; in film formulation, T0 Week) was 108%.
For `COc1cc(-c2cc(=O)c3c(O)cc(O)c(CC=C(C)C)c3o2)ccc1O` [FBL-03G], the “Survival rate of subjects suffering from pancreatic cancer” value (pancreatic cancer) is given as “increase survival rate”.
For `C=C1CC[C@H](O)C/C1=C/C=C1\CCC[C@]2(C)[C@@H]([C@H](C)CCCC(C)C)CC[C@@H]12` [Vitamin D3], the “Protection and stability of Vitamin D3 in OTF” value ([2]; 4 weeks stability study, high heat and humidity) was “significant protection”, the “% Assay of Vitamin D3” value ([2]; 25 C./60% RH, T 1 Week) was 95% and the “% Assay of Vitamin D3” value ([2]; 25 C./60% RH, T2 Weeks) was 100%. For the same compound, the “% Assay of Vitamin D3” value ([2]; 25 C./60% RH, T3 Weeks) was 101%, the “% Assay of Vitamin D3” value ([2]; 25 C./60% RH, T4 Weeks) was 101% and the “% Assay of Vitamin D3” value ([2]; 40 C./75% RH, T 1 Week) was 98%. For the same compound, the “% Assay of Vitamin D3” value ([2]; 40 C./75% RH, T2 Weeks) was 92%, the “% Assay of Vitamin D3” value ([2]; 40 C./75% RH, T3 Weeks) was 91% and the “% Assay of Vitamin D3” value ([2]; 40 C./75% RH, T4 Weeks) was 93%. For the same compound, the “% Assay of Vitamin D3” value ([2]; T0 Week) was 100%.
